Measurements reported in patent US6838253B2, “Regulation of intracellular glucocorticoid concentrations” (The University of Edinburgh, priority 1995, dated 2005).
One block for each compound: values may come before it.

Columns and labels:
[1] = thymic involution in mice; type: in vivo, mouse; conditions: wild-type control mice; homozygous mutant mice resistant
Excerpt: Homozygotes for the mutant allele are morphologically intact and fully fertile. No survival bias is conferred by the mutant allele. However, neither 11β-HSD1 mRNA nor enzyme activity (techniques as above) were detected in mutant homozygotes, and reduced mRNA and activity were detected in heterozygotes.

rat hippocampal cells = assay: kainic acid neurotoxicity, hippocampal cell survival; type: cell-based; conditions: for kainic acid neurotoxicity: pretreatment with steroid alone
Excerpt: To assess the influence of 11β-reductase activity on neurotoxicity, cells were exposed to kainic acid and cell survival determined.

[2] = target: T1, hepatic 11β-reductase activity (Homo sapiens, UniProt P28845); assay: conversion of oral cortisone to cortisol on first pass as index of 11β-reductase activity in vivo in man
T1 construct: from tissue; host or cells: liver of human volunteers, in vivo
T1 sequence (P28845 whole entry): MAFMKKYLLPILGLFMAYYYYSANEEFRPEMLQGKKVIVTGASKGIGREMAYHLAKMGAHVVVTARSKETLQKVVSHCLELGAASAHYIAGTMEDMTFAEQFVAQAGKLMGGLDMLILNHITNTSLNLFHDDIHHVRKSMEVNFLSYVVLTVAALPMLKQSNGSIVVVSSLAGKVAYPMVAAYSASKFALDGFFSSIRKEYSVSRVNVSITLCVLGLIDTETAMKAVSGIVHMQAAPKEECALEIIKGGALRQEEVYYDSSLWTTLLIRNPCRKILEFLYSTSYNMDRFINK
Excerpt: Consistent with the observations in animal tissues and cultured cells described above, we have established the relative activities of 11β-dehydrogenase and 11β-reductase in vivo in different organs in man by measuring the cortisol/cortisone ratio in plasma from selective venous catheterisations. In most organs the venous effluent contains cortisol and cortisone in a ratio of ˜10:1. However, in renal vein plasma the ratio is 3:1, while in hepatic vein plasma the ratio is 55:1, consistent with potent 11β-dehydrogenase activity due to 11β-HSD2 expression in the kidney and potent 11β-reductase 11β-HSD1 activity in the liver. Moreover, cortisone taken orally, and therefore delivered to the liver via the portal vein, is avidly converted on first pass to cortisol in the peripheral circulation. Using this index of 11β-reductase activity we have shown that, in addition to inhibiting renal 11β-dehydrogenase activity, carbenoxolone (but not glycyrrhetinic acid) inhibits hepatic 11β-reductase activity in vivo in man.

adipocytes = conditions: higher concentrations (mmol/l), without corticosteroid, reference 37; cited from earlier work
[3] = system: corticosteroids receptors; conditions: reference 36; cited from earlier work
[4] = fasting plasma glucose in rats after 14 days of subcutaneous treatment; type: in vivo, rat; conditions: 1, 3 or 10 mg daily s.c., male Wistar Hans rats
Experimental: Intact male Wistar Hans rats of body weight 200-250 g were treated with daily subcutaneous injection of 1 ml of either 0.9% saline (vehicle) or carbenoxolone (made up to 1, 3, or 10 mg/ml in 0.9% saline) for 14 days. They were fasted from 4 pm and blood obtained by tail-nick at 9 am the next day. Plasma glucose was measured by a glucose oxidase method on a Beckman CX-3 autoanalyser.

11β-reductase activity = target: T2, 11β-reductase activity (Rattus norvegicus, UniProt P16232); assay: 11β-reductase activity in whole primary fetal hippocampal cells in culture; type: cell-based; conditions: 10^−6M
T2 construct: endogenous in cells; host or cells: primary cultures of fetal rat hippocampal cells
T2 sequence (P16232 whole entry): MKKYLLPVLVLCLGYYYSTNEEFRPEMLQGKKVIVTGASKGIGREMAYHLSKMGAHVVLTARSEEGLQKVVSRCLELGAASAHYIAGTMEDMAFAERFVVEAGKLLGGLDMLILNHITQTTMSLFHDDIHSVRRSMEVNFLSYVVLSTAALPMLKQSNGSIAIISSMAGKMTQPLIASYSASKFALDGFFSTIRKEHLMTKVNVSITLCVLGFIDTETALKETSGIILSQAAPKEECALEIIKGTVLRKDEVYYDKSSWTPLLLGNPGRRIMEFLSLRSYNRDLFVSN
Excerpt: Hippocampi were dissected from Wistar rat embryos on day 18.5 of pregnancy and cultured in DMEM with supplements, as described. These cells expressed 11β-HSD1 mRNA, and homogenised cells performed either 11β-dehydrogenase or 11β-reductase activity.

5β-reductase = target: T3, 5β-reductase (Homo sapiens, UniProt P51857); conditions: reference 35; cited from earlier work
T3 sequence (P51857 1-326): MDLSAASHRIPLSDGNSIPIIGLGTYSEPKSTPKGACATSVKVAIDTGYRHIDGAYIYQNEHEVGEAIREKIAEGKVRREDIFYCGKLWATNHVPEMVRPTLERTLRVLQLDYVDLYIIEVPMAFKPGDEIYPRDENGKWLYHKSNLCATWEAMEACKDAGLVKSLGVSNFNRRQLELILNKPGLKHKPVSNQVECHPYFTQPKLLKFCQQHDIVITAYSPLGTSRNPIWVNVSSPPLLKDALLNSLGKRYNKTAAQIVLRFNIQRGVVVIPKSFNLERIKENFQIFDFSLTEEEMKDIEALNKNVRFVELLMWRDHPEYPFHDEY

[5] = euglycaemic hyperinsulinaemic clamp study with forearm glucose uptake in healthy male volunteers; type: in vivo, human
Experimental: Seven non-obese (Body Mass Index <25) healthy male Caucasian volunteers on no medication, aged 27-36 years, were given carbenoxolone (100 mg every 8 hours orally) or matched placebo for seven days in a randomised double-blind cross-over design, with phases separated by at least 4 weeks. On the seventh day of each phase euglycaemic hyperinsulinaemic clamp studies with measurement of forearm glucose uptake were performed, as described in detail in reference 16, the content of which is incorporated herein by reference.

glucocorticoid receptors = target: T4, glucocorticoid receptors (Homo sapiens, UniProt P04150); conditions: reference 29; cited from earlier work
T4 sequence (P04150 1-777): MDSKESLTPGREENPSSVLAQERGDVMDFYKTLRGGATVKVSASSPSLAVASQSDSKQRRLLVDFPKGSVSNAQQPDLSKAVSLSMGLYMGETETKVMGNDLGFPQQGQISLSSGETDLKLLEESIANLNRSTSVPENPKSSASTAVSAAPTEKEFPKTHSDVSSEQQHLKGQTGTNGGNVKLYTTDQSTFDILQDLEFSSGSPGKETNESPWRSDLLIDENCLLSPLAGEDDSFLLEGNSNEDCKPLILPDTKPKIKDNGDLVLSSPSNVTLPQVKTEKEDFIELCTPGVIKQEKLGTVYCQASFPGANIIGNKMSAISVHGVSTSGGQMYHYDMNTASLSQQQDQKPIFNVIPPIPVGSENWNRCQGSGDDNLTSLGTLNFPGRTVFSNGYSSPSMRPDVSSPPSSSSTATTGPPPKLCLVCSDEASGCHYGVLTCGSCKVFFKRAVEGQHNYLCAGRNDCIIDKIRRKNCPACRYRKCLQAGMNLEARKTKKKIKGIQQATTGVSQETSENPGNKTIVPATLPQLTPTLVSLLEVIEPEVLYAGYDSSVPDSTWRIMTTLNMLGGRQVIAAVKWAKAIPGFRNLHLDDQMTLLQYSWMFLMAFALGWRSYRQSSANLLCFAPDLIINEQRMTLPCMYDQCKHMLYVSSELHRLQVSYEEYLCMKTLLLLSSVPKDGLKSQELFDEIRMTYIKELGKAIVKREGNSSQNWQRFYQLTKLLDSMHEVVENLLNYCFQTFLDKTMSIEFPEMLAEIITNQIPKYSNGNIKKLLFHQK

11β-HSD1 mRNA = assay: northern analysis of hepatic 11β-HSD1 mRNA in treated rats; type: in vivo, rat
Excerpt: (§1) Male Han Wistar rats (200-250 g) underwent gonadectomy and either bilateral adrenalectomy or sham-operation under halothane anaesthesia. For estradiol administration, silicone elastomer capsules (1.95 mm internal diameter, 3.125 mm external diameter) (Dow Corning Corporation, Midland, Mich., USA) containing 17β-estradiol (Sigma, Poole, UK) were implanted subcutaneously. For animals treated for 42 days with estradiol, the capsules were removed and replaced after 21 days. Control animals were implanted with blank capsules. Adrenalectomised rats were maintained on 0.9%. saline. Rats were killed 10, 21 or 42 days after surgery. Liver and hippocampus were removed and dissected on ice for assay of 11β-HSD activity and an aliquot of liver was frozen on dry ice and stored at −80° C. until extraction of RNA.
Total RNA was extracted from liver tissue by the guanidinium thiocyanate method, as described and resuspended in diethylpyrocarbonate-treated water. RNA concentration and purity was assayed spectrophotometrically. 20 μg aliquots were separated on a 1.2% agarose gel containing 2% formaldehyde. […] Optical density was determined using a computer-driven image analysis system (Seescan plc, Cambs, UK). Values were expressed as a percentage of control levels.

PEPCK mRNA = assay: northern analysis of hepatic PEPCK mRNA in treated rats; type: in vivo, rat
Excerpt: as §1
Total RNA was extracted from liver tissue by the guanidinium thiocyanate method, as described and resuspended in diethylpyrocarbonate-treated water. RNA concentration and purity was assayed spectrophotometrically. 20 μg aliquots were separated on a 1.2% agarose gel containing 2% formaldehyde. RNA was blotted onto nitrocellulose membranes (Hybond-N, Amersham International, UK), prehybridized in 6 ml phosphate buffer (0.2 M NaH2PO4, 0.6 M NaH2PO4, 5 mM EDTA), 3 ml 20% SDS and 100 μg denatured herring testis DNA (Sigma, Poole, UK) for 2 h at 55° C. and hybridized at 55° C. overnight in the same solution containing rat 11β-HSD1 or PEPCK cDNA, labelled with ^32P-dCTP using a random primed DNA labelling kit (Boehringer Mannheim UK Ltd., Lewes, UK). Three 20 min washes were carried out at room temperature in 1×SSC (0.3 M NaCl, 0.03 M sodium citrate), 0.1% SDS followed by a stringent wash at 55° C. for 30 min in 0.3×SSC, 0.1% SDS. Filters were exposed to autoradiographic film for 1-4 days (adjusted to ensure the signal density was within the linear range). […] Optical density was determined using a computer-driven image analysis system (Seescan plc, Cambs, UK). Values were expressed as a percentage of control levels.

11β-HSD = 11β-HSD activity in tissue homogenates of treated gonadectomised rats; type: in vivo, rat
Excerpt: as §1
Tissues were homogenised in Krebs-Ringer bicarbonate buffer with 0.2% glucose, pH 7.4, and assayed as described previously. Homogenates (6.25 μg of liver protein, 250 μg of hippocampal protein) were incubated with 200 μM NADP (Sigma, Poole, UK) and 12 nM [^3H]-corticosterone (specific activity 84 Ci/mmol; Amersham International, Aylesbury, UK) in a total volume of 250 μl with […] 11β-dehydrogenase activity was quantified in this assay as a measure of active enzyme since 11β-reductase is unstable in homogenates. Steroids were extracted with ethyl acetate and separated by HPLC with on-line β courtier. 11β-HSD activity was expressed as conversion of corticosterone to 11-dehydrocorticosterone, after correction for apparent conversion in incubates without enzyme (<3%).

[6] = 100 mg every 8 hours orally, seven days
[7] = 100 mg every 8 hours orally, seven days, healthy men

SMILES: C[C@]12CC(=O)[C@H]3[C@@H](CCC4=CC(=O)CC[C@@]43C)[C@@H]1CC[C@@H]2C(=O)CO [11-dehydrocorticosterone]
thymic involution [1]: thymic involution seen
kainic acid neurotoxicity (rat hippocampal cells): potentiated

effect on 11β-reductase in vivo [2]: inhibits
hepatic 11β-reductase activity in vivo in man ([2]; oral cortisone converted to cortisol, man): inhibits
11β-reductase activity in whole hippocampal cells (11β-reductase activity): almost abolished
forearm blood flow [5, 6]: not elevated
plasma renin, aldosterone, and potassium concentrations ([5]; consequent on renal effects): suppressed
SMILES: CC1(C)[C@@H](OC(=O)CCC(=O)O)CC[C@]2(C)[C@H]3C(=O)C=C4[C@@H]5C[C@@](C)(C(=O)O)CC[C@]5(C)CC[C@@]4(C)[C@]3(C)CC[C@@H]12 [carbenoxolone, 3β-(3-carboxypropionyloxy)-11-oxo-olean-2-en 30-oic acid]
action of insulin in adipocytes (adipocytes): antagonises
affinity for corticosteroids receptors in vitro [3]: low affinity
fasting glucose concentrations [4]: dose-dependent fall
5β-reductase inhibition (5β-reductase): inhibits
potentiating effect of 11-dehydrocorticosterone on kainic acid neurotoxicity (rat hippocampal cells; with 11-dehydrocorticosterone): protected the cells
effect of corticosterone on kainic acid neurotoxicity (rat hippocampal cells; with corticosterone): did not alter
blood pressure [5, 6]: not elevated
fasting glucose concentration [5, 7]: no change
fasting insulin concentration [5, 7]: fall
peripheral glucose uptake as measured by forearm glucose uptake ([5]; euglycaemic clamp, day 7, versus placebo): No difference was detected

SMILES: C[C@]12C[C@H](O)[C@H]3[C@@H](CCC4=CC(=O)CC[C@@]43C)[C@@H]1CC[C@@H]2C(=O)CO [corticosterone]
kainic acid neurotoxicity (rat hippocampal cells): potentiated

SMILES: C[C@]12CCC(=O)C=C1CC[C@@H]1[C@@H]2[C@@H](O)C[C@@]2(C)[C@H]1CC[C@]2(O)C(=O)CO [cortisol]
affinity of glucocorticoid receptors relative to mineralocorticoid receptors (glucocorticoid receptors): 10-40 times lower

SMILES: C[C@]12CC[C@@H]3c4ccc(O)cc4CC[C@H]3[C@@H]1CC[C@@H]2O [estradiol, 17β-estradiol]
liver 11β-HSD1 mRNA in adrenalectomised rats (11β-HSD1 mRNA; adrenalectomised, 21 days): reduced
hepatic 11β-HSD1 mRNA expression (11β-HSD1 mRNA; after 21 and 42 days, gonadectomised male rats): undetectable levels
PEPCK mRNA levels in adrenalectomised rats (PEPCK mRNA; adrenalectomised, 21 days, compared with adrenalectomy alone): increased
hepatic PEPCK gene expression (PEPCK mRNA; after 21 days, adrenally intact): decreased
PEPCK mRNA expression (PEPCK mRNA; after 42 days): significantly reduced
hepatic 11β-HSD activity (11β-HSD; 10, 21 and 42 days, gonadectomised male rats): marked decreases
11β-HSD activity in the hippocampus (11β-HSD; 21 or 42 days): not altered
conversion of corticosterone to 11-dehydrocorticosterone in liver homogenates (11β-HSD; 42 days of treatment, prolonged (60 min) incubation): 12.2±14.7%
liver 11β-HSD1 activity in adrenalectomised rats (11β-HSD; adrenalectomised, 21 days): reduced

effect on 11β-reductase in vivo [2]: no effect
SMILES: CC1(C)[C@@H](O)CC[C@]2(C)[C@H]3C(=O)C=C4[C@@H]5C[C@@](C)(C(=O)O)CC[C@]5(C)CC[C@@]4(C)[C@]3(C)CC[C@@H]12 [glycyrrhetinic acid]
